Laboratory results from PubChem BioAssay (NCI).
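Briefly, cells in 96-well plates were exposed to five compound concentrations for 48 h, and endpoints were estimated by linear interpolation. TGI is the concentration that stops growth completely.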

Assays:
Test in all cases: growth of human tumour cells (NCI), 48 h
M14 melanoma = tested on: M14 melanoma
K-562 leukemia = tested on: K-562 leukemia
SW-620 colon = tested on: SW-620 colon
SF-268 CNS = tested on: SF-268 CNS
MDA-N = tested on: MDA-N
HT29 colon = tested on: HT29 colon
BT-549 breast = tested on: BT-549 breast
NCI-H460 lung = tested on: NCI-H460 lung
RPMI-8226 leukemia = tested on: RPMI-8226 leukemia
HOP-62 NSCLC = tested on: HOP-62 NSCLC
HCT-15 colon = tested on: HCT-15 colon
OVCAR-3 ovarian = tested on: OVCAR-3 ovarian
SK-OV-3 ovarian = tested on: SK-OV-3 ovarian
MDA-MB-435 = tested on: MDA-MB-435
A549 NSCLC = tested on: A549 NSCLC
ACHN renal = tested on: ACHN renal
CCRF-CEM leukemia = tested on: CCRF-CEM leukemia
SF-295 CNS = tested on: SF-295 CNS
IGROV1 ovarian = tested on: IGROV1 ovarian
NCI-H226 lung = tested on: NCI-H226 lung
SK-MEL-2 melanoma = tested on: SK-MEL-2 melanoma
EKVX NSCLC = tested on: EKVX NSCLC
NCI/ADR-RES ovarian = tested on: NCI/ADR-RES ovarian
HCC-2998 colon = tested on: HCC-2998 colon
MCF7 breast = tested on: MCF7 breast
NCI-H23 lung = tested on: NCI-H23 lung
PC-3 prostate = tested on: PC-3 prostate
UACC-62 melanoma = tested on: UACC-62 melanoma
TK-10 renal = tested on: TK-10 renal
SR leukemia = tested on: SR leukemia
UO-31 renal = tested on: UO-31 renal
CAKI-1 renal = tested on: CAKI-1 renal
MOLT-4 leukemia = tested on: MOLT-4 leukemia
786-0 renal = tested on: 786-0 renal
HS 578T breast = tested on: HS 578T breast
OVCAR-8 ovarian = tested on: OVCAR-8 ovarian
HCT-116 colon = tested on: HCT-116 colon
DU-145 prostate = tested on: DU-145 prostate
UACC-257 melanoma = tested on: UACC-257 melanoma
COLO 205 colon = tested on: COLO 205 colon
A498 renal = tested on: A498 renal
HOP-92 NSCLC = tested on: HOP-92 NSCLC
U251 CNS = tested on: U251 CNS
NCI-H522 lung = tested on: NCI-H522 lung
SK-MEL-28 melanoma = tested on: SK-MEL-28 melanoma
LOX IMVI melanoma = tested on: LOX IMVI melanoma
MDA-MB-231 breast = tested on: MDA-MB-231 breast
KM12 colon = tested on: KM12 colon
MALME-3M melanoma = tested on: MALME-3M melanoma
SNB-19 CNS = tested on: SNB-19 CNS
OVCAR-4 ovarian = tested on: OVCAR-4 ovarian
RXF 393 renal = tested on: RXF 393 renal
OVCAR-5 ovarian = tested on: OVCAR-5 ovarian
SK-MEL-5 melanoma = tested on: SK-MEL-5 melanoma
HL-60(TB) leukemia = tested on: HL-60(TB) leukemia
SN12C renal = tested on: SN12C renal
T-47D breast = tested on: T-47D breast
SNB-75 CNS = tested on: SNB-75 CNS
SF-539 CNS = tested on: SF-539 CNS

With `Nc1cc(C(=O)O)[nH]c(=O)n1` the TGI (M14 melanoma) was > 100 µM, the TGI (K-562 leukemia) was > 100 µM and the TGI (SW-620 colon) was > 100 µM. The TGI (SF-268 CNS) was > 100 µM, the TGI (MDA-N) was > 100 µM and the TGI (HT29 colon) was > 100 µM. For the same molecule, the TGI (BT-549 breast) was > 100 µM, the TGI (NCI-H460 lung) was > 100 µM and the TGI (RPMI-8226 leukemia) was > 100 µM. The TGI (HOP-62 NSCLC) was > 100 µM, the TGI (HCT-15 colon) was > 100 µM and the TGI (OVCAR-3 ovarian) was > 100 µM. The TGI (SK-OV-3 ovarian) was > 100 µM, the TGI (MDA-MB-435) was > 100 µM and the TGI (A549 NSCLC) was > 100 µM. The TGI (ACHN renal) was > 100 µM, the TGI (CCRF-CEM leukemia) was > 100 µM and the TGI (SF-295 CNS) was > 100 µM. The TGI (IGROV1 ovarian) was > 100 µM, the TGI (NCI-H226 lung) was > 100 µM and the TGI (SK-MEL-2 melanoma) was > 100 µM. The TGI (EKVX NSCLC) was > 100 µM, the TGI (NCI/ADR-RES ovarian) was > 100 µM and the TGI (HCC-2998 colon) was > 100 µM. The TGI (MCF7 breast) was > 100 µM, the TGI (NCI-H23 lung) was > 100 µM and the TGI (PC-3 prostate) was > 100 µM. The TGI (UACC-62 melanoma) was > 100 µM, the TGI (TK-10 renal) was > 100 µM and the TGI (SR leukemia) was > 100 µM. For the same molecule, the TGI (UO-31 renal) was > 100 µM, the TGI (CAKI-1 renal) was > 100 µM and the TGI (MOLT-4 leukemia) was > 100 µM. For the same molecule, the TGI (786-0 renal) was > 100 µM, the TGI (HS 578T breast) was > 100 µM and the TGI (OVCAR-8 ovarian) was > 100 µM. The TGI (HCT-116 colon) was > 100 µM, the TGI (DU-145 prostate) was > 100 µM and the TGI (UACC-257 melanoma) was > 100 µM. For the same molecule, the TGI (COLO 205 colon) was > 100 µM, the TGI (A498 renal) was > 100 µM and the TGI (HOP-92 NSCLC) was > 100 µM. The TGI (U251 CNS) was > 100 µM, the TGI (NCI-H522 lung) was > 100 µM and the TGI (SK-MEL-28 melanoma) was > 100 µM. The TGI (LOX IMVI melanoma) was > 100 µM, the TGI (MDA-MB-231 breast) was > 100 µM and the TGI (KM12 colon) was > 100 µM. The TGI (MALME-3M melanoma) was > 100 µM, the TGI (SNB-19 CNS) was > 100 µM and the TGI (OVCAR-4 ovarian) was > 100 µM. For the same molecule, the TGI (RXF 393 renal) was > 100 µM, the TGI (OVCAR-5 ovarian) was > 100 µM and the TGI (SK-MEL-5 melanoma) was > 100 µM. For the same molecule, the TGI (HL-60(TB) leukemia) was > 100 µM and the TGI (SN12C renal) was > 100 µM.

For `COC(=O)C1=C(C(=O)OC)C(Cc2ccccc2)(OO)OC1=O` (stereo not given), the TGI (M14 melanoma) was > 100 µM, the TGI (K-562 leukemia) was 63.7 µM and the TGI (SW-620 colon) was > 100 µM. For the same molecule, the TGI (MDA-N) was > 100 µM, the TGI (HT29 colon) was 24.2 µM and the TGI (BT-549 breast) was 26.3 µM. The TGI (NCI-H460 lung) was > 100 µM, the TGI (HCT-15 colon) was 16 µM and the TGI (OVCAR-3 ovarian) was 19.7 µM. For the same molecule, the TGI (SK-OV-3 ovarian) was 94.4 µM, the TGI (MDA-MB-435) was > 100 µM and the TGI (A549 NSCLC) was > 100 µM. The TGI (T-47D breast) was > 100 µM, the TGI (ACHN renal) was 9.36 µM and the TGI (CCRF-CEM leukemia) was 6.69 µM. The TGI (SF-295 CNS) was > 100 µM, the TGI (IGROV1 ovarian) was 24.5 µM and the TGI (NCI-H226 lung) was 35.9 µM. For the same molecule, the TGI (SK-MEL-2 melanoma) was 96.2 µM, the TGI (EKVX NSCLC) was 37.3 µM and the TGI (NCI/ADR-RES ovarian) was > 100 µM. The TGI (HCC-2998 colon) was > 100 µM, the TGI (MCF7 breast) was 53.9 µM and the TGI (NCI-H23 lung) was 44.4 µM. For the same molecule, the TGI (PC-3 prostate) was > 100 µM, the TGI (UACC-62 melanoma) was 15.5 µM and the TGI (TK-10 renal) was 15 µM. The TGI (SR leukemia) was > 100 µM, the TGI (UO-31 renal) was 26.9 µM and the TGI (CAKI-1 renal) was 19.4 µM. For the same molecule, the TGI (MOLT-4 leukemia) was 30.8 µM, the TGI (786-0 renal) was > 100 µM and the TGI (OVCAR-8 ovarian) was > 100 µM. For the same molecule, the TGI (HCT-116 colon) was > 100 µM, the TGI (DU-145 prostate) was > 100 µM and the TGI (UACC-257 melanoma) was > 100 µM. The TGI (COLO 205 colon) was > 100 µM, the TGI (HOP-92 NSCLC) was 42.4 µM and the TGI (U251 CNS) was 67.9 µM. The TGI (NCI-H522 lung) was 6.71 µM, the TGI (SNB-75 CNS) was 49.6 µM and the TGI (SK-MEL-28 melanoma) was > 100 µM. For the same molecule, the TGI (LOX IMVI melanoma) was 22.8 µM, the TGI (MDA-MB-231 breast) was > 100 µM and the TGI (KM12 colon) was 39.1 µM. The TGI (MALME-3M melanoma) was 24.5 µM, the TGI (SNB-19 CNS) was 58.9 µM and the TGI (OVCAR-4 ovarian) was 52.3 µM. For the same molecule, the TGI (RXF 393 renal) was 32.8 µM, the TGI (OVCAR-5 ovarian) was 54.2 µM and the TGI (SK-MEL-5 melanoma) was > 100 µM. The TGI (HL-60(TB) leukemia) was 3.66 µM, the TGI (SF-539 CNS) was 17.1 µM and the TGI (SN12C renal) was 98 µM.
